From patent US8952024B2, “Herbicidal pyrimidone derivatives” (E I du Pont de Nemours and Company, priority 2009, dated 2015)

Key:
Assay in all cases: Test B pre-/postemergence plant response
Assay type in all cases: in vivo
[1] = system: velvetleaf (Abutilon theophrasti); settings: Postemergence
Method in brief: (§1)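 Pre-em in loam/sand; post-em at 1–4 leaf (2–18 cm) in peat mix. Solvent + surfactant formulation. Greenhouse 13–15 d; visual % control vs untreated, 0–100.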

[2] = system: ragweed (common ragweed, Ambrosia elatior); settings: Postemergence
Method in brief: as §1

[3] = system: pigweed (Amaranthus retroflexus); settings: Postemergence
Method in brief: as §1

[4] = system: kochia (Kochia scoparia); settings: Postemergence
Method in brief: as §1

[5] = system: johnsongrass (Sorghum halepense); settings: Postemergence
Method in brief: as §1

[6] = system: downy bromegrass (Bromus tectorum)
Method in brief: as §1

[7] = system: giant foxtail (Setaria faberii); settings: Postemergence
Method in brief: as §1

[8] = system: corn (Zea mays); settings: Postemergence
Method in brief: as §1

[9] = system: Surinam grass (Brachiaria decumbens); settings: Postemergence
Method in brief: as §1

[10] = system: Italian ryegrass (Lolium multiflorum); settings: Postemergence
Method in brief: as §1

[11] = system: woolly cupgrass (Eriochloa villosa); settings: Postemergence
Method in brief: as §1

[12] = system: blackgrass (Alopecurus myosuroides)
Method in brief: as §1

[13] = system: soybean (Glycine max); settings: Postemergence
Method in brief: as §1

[14] = 31 g ai/ha, 0 to 100 scale (0 no effect, 100 complete control)
[15] = 125 g ai/ha, scale 0 to 100 (0 no effect, 100 complete control)
[16] = 250 g ai/ha, scale 0 to 100 (0 no effect, 100 complete control), 13 to 15 days
[17] = 62 g ai/ha, postemergence, 0 is no effect, 100 is complete control, 13 to 15 days
[18] = Postemergence, 31 g ai/ha, 0 to 100 scale (0 no effect, 100 complete control)
[19] = Postemergence, 125 g ai/ha, scale 0 to 100 (0 no effect, 100 complete control)
[20] = Postemergence, 250 g ai/ha, scale 0 to 100 (0 no effect, 100 complete control), 13 to 15 days
[21] = 31 g ai/ha, scale 0 to 100 (0 no effect, 100 complete control)
[22] = 62 g ai/ha, scale 0 (no effect) to 100 (complete control), 13 to 15 days
[23] = 125 g ai/ha, visual rating after 13 to 15 days, scale 0 (no effect) to 100 (complete control)
[24] = Postemergence, 31 g ai/ha, scale 0 to 100 (0 no effect, 100 complete control)
[25] = Postemergence, 62 g ai/ha, scale 0 (no effect) to 100 (complete control), 13 to 15 days
[26] = Postemergence, 125 g ai/ha, visual rating after 13 to 15 days, scale 0 (no effect) to 100 (complete control)
[27] = Postemergence, 250 g ai/ha, scale 0 to 100

With `Cc1ccc(F)cc1-n1c(-c2cccc(Cl)c2)ncc(C(=O)C2=C(O)CCCC2=O)c1=O` [Compound 157] the “Plant response rating, Velvetleaf” value [1, 14] was 100, the “Plant response rating, Velvetleaf” value [1, 15] was 100 and the “Plant response rating, Velvetleaf” value [1, 16] was 100. The “Plant response rating, Ragweed” value [2, 14] was 90, the “Plant response rating, Ragweed” value [2, 15] was 100 and the “Plant response rating, Ragweed” value [2, 16] was 100. The “Plant response rating, Pigweed” value [3, 14] was 65, the “Plant response rating, Pigweed” value [3, 15] was 90 and the “Plant response rating, Pigweed” value [3, 16] was 98. For the same compound, the “Plant response rating, Kochia” value [4, 14] was 0, the “Plant response rating, Kochia” value [4, 15] was 10 and the “Plant response rating, Kochia” value [4, 16] was 45. For the same compound, the “Plant response rating, Johnsongrass” value [5, 14] was 70, the “Plant response rating, Johnsongrass” value [5, 15] was 100 and the “Plant response rating, Johnsongrass” value [5, 16] was 100. For the same compound, the “Bromegrass, Downy plant response rating (0 to 100 scale)” value [6, 17] was 40, the “Plant response rating, Bromegrass, Downy” value [6, 18] was 40 and the “Plant response rating, Bromegrass, Downy” value [6, 19] was 60. The “Plant response rating, Bromegrass, Downy” value [6, 20] was 65, the “Plant response rating, Foxtail, Giant” value [7, 14] was 98 and the “Plant response rating, Foxtail, Giant” value [7, 15] was 100. The “Plant response rating, Foxtail, Giant” value [7, 16] was 100, the “Plant response rating, Corn” value [8, 14] was 70 and the “Plant response rating, Corn” value [8, 15] was 95. The “Plant response rating, Corn” value [8, 16] was 100, the “Plant response rating, Surinam Grass” value [9, 14] was 75 and the “Plant response rating, Surinam Grass” value [9, 15] was 98. For the same compound, the “Plant response rating, Surinam Grass” value [9, 16] was 100, the “Plant response rating, Ryegrass, Italian” value [10, 14] was 10 and the “Plant response rating, Ryegrass, Italian” value [10, 15] was 30. For the same compound, the “Plant response rating, Ryegrass, Italian” value [10, 16] was 35, the “Plant response rating, Cupgrass, Woolly” value [11, 14] was 85 and the “Plant response rating, Cupgrass, Woolly” value [11, 15] was 98. For the same compound, the “Plant response rating, Cupgrass, Woolly” value [11, 16] was 98, the “Blackgrass plant response rating (0 to 100 scale)” value [12, 17] was 5 and the “Plant response rating, Blackgrass” value [12, 18] was 0. The “Plant response rating, Blackgrass” value [12, 19] was 10, the “Plant response rating, Blackgrass” value [12, 20] was 40 and the “Plant response rating, Soybean” value [13, 14] was 95. The “Plant response rating, Soybean” value [13, 15] was 100 and the “Plant response rating, Soybean” value [13, 16] was 100.
With `Cc1ccc(-n2c(-c3ccccc3)ncc(C(=O)C3=C(O)CCCC3=O)c2=O)cc1` [Compound 8] the “Plant response rating, Velvetleaf” value [1, 21] was 75, the “Plant response rating, Velvetleaf” value [1, 22] was 80 and the “Plant response rating, Velvetleaf” value [1, 23] was 95. The “Velvetleaf plant response rating” value ([1]; 250 g ai/ha, scale 0 to 100) was 100, the “Plant response rating, Ragweed” value [2, 21] was 90 and the “Plant response rating, Ragweed” value [2, 22] was 100. For the same compound, the “Plant response rating, Ragweed” value [2, 23] was 100, the “Ragweed plant response rating” value ([2]; 250 g ai/ha, scale 0 to 100) was 100 and the “Plant response rating, Pigweed” value [3, 21] was 98. The “Plant response rating, Pigweed” value [3, 22] was 100, the “Plant response rating, Pigweed” value [3, 23] was 100 and the “Pigweed plant response rating” value ([3]; 250 g ai/ha, scale 0 to 100) was 100. For the same compound, the “Plant response rating, Kochia” value [4, 21] was 85, the “Plant response rating, Kochia” value [4, 22] was 100 and the “Plant response rating, Kochia” value [4, 23] was 100. The “Kochia plant response rating” value ([4]; 250 g ai/ha, scale 0 to 100) was 100, the “Plant response rating, Johnsongrass” value [5, 21] was 80 and the “Plant response rating, Johnsongrass” value [5, 22] was 98. The “Plant response rating, Johnsongrass” value [5, 23] was 98, the “Johnsongrass plant response rating” value ([5]; 250 g ai/ha, scale 0 to 100) was 100 and the “Plant response rating, Bromegrass, Downy” value [6, 24] was 5. The “Plant response rating, Bromegrass, Downy” value [6, 25] was 5, the “Plant response rating, Bromegrass, Downy” value [6, 26] was 10 and the “Bromegrass, Downy plant response rating” value [6, 27] was 10. For the same compound, the “Plant response rating, Foxtail, Giant” value [7, 21] was 98, the “Plant response rating, Foxtail, Giant” value [7, 22] was 100 and the “Plant response rating, Foxtail, Giant” value [7, 23] was 100. For the same compound, the “Foxtail, Giant plant response rating” value ([7]; 250 g ai/ha, scale 0 to 100) was 100, the “Plant response rating, Corn” value [8, 21] was 15 and the “Plant response rating, Corn” value [8, 22] was 65. For the same compound, the “Plant response rating, Corn” value [8, 23] was 75, the “Corn plant response rating” value ([8]; 250 g ai/ha, scale 0 to 100) was 80 and the “Plant response rating, Surinam Grass” value [9, 21] was 60. For the same compound, the “Plant response rating, Surinam Grass” value [9, 22] was 65, the “Plant response rating, Surinam Grass” value [9, 23] was 75 and the “Surinam Grass plant response rating” value ([9]; 250 g ai/ha, scale 0 to 100) was 80. For the same compound, the “Plant response rating, Ryegrass, Italian” value [10, 21] was 20, the “Plant response rating, Ryegrass, Italian” value [10, 22] was 20 and the “Plant response rating, Ryegrass, Italian” value [10, 23] was 30. For the same compound, the “Ryegrass, Italian plant response rating” value ([10]; 250 g ai/ha, scale 0 to 100) was 50, the “Plant response rating, Cupgrass, Woolly” value [11, 21] was 75 and the “Plant response rating, Cupgrass, Woolly” value [11, 22] was 80. The “Plant response rating, Cupgrass, Woolly” value [11, 23] was 90, the “Cupgrass, Woolly plant response rating” value ([11]; 250 g ai/ha, scale 0 to 100) was 100 and the “Plant response rating, Blackgrass” value [12, 24] was 5. For the same compound, the “Plant response rating, Blackgrass” value [12, 25] was 10, the “Plant response rating, Blackgrass” value [12, 26] was 10 and the “Blackgrass plant response rating” value [12, 27] was 20. The “Plant response rating, Soybean” value [13, 21] was 98, the “Plant response rating, Soybean” value [13, 22] was 98 and the “Plant response rating, Soybean” value [13, 23] was 98. For the same compound, the “Soybean plant response rating” value ([13]; 250 g ai/ha, scale 0 to 100) was 100.
